Measurements as given in patent publication US20220016067A1, “NOVEL ANTI-INFLAMMATORY COMPOUND, PRODUCING METHOD AND USE THEREOF” (priority 2020, published 2022).

Assays:
Assay type in all cases: cell-based
iNOS = experiment: LPS-induced iNOS expression in RAW264.7 macrophage cells (Western blot); settings: LPS 200 ng/ml, PL6 50-400 μM, 24 hours
Procedure: The effect of Pineapplin PL6 on the LPS-induced iNOS expression is tested in RAW264.7 macrophage cells. The iNOS/β-actin ratio is the relative expression level of iNOS and β-actin protein. The higher the expression level of iNOS, the more inflammation response occurred (as an inflammation index). RAW264.7 macrophage cells were pretreated with LPS (200 ng/ml) for 24 hours, then incubated with various concentrations (50, 100, 200 and 400 μM) of PL6 at 5% CO2 and 37° C. for 24 hours. The (−) control group is treated with LPS-free medium, and the (+) control group is treated with PL6-free LPS medium. The cell culture supernatant of each group is collected, then the protein concentration is calculated, and 30 μg of total protein is taken from each group for protein gel electrophoresis. […] The luminescence fluorescence digital analysis system (ImageQuant LAS 400 mini, GE Healthcare Life Sciences) is used for luminescence color development.
The data shown in FIG. 7 is the relative expression of iNOS protein to β-actin, which is calculated by a software, based on the values obtained from the luminescence color film using scanning optical density method and standardized to β-actin protein.

RAW264.7 cells = experiment: Cytotoxicity test (Alamar blue) in RAW264.7 cells; settings: 25, 50, 100, 200, 400 and 800 μM, 24 hours
Procedure: RAW264.7 cells are cultured in RPMI medium containing 10% fetal bovine serum, 0.2% sodium bicarbonate and 1% penicillin/streptomycin, and in a 5% CO2, 37° C. incubator. The cells are subcultured when a confluency of 70-80% is reached. RAW264.7 cells are inoculated in a 96-well plate at a density of 4×10^4 cells/well per well. After the cells are adhered for overnight incubation, Pineapplin PL6 at different concentrations (25, 50, 100, 200, 400 and 800 μM) or pineapple extract (3, 6, 12 mg/ml) is added to each well. The blank control group is treated with culture medium without the Pineapplin PL6 or pineapple extract After 24 hours of incubation, Alamar blue is used to test cytotoxicity of the Pineapplin PL6. The medium is removed, washed twice with PBS, and diluted 10 times with Alamar Blue reagent in the medium without FBS. After reaction in dark for 6 hours, the change in absorbance at a wavelength of 570 nm is measured by using an ELISA reader.

[1] = tested on: nitric oxide production induced by LPS in RAW264.7 macrophages; experiment: LPS-induced NO production in RAW264.7 macrophages (Griess reagent); settings: 200 μM and 400 μM, LPS 200 ng/ml, RAW264.7, 24 hours
Procedure: RAW264.7 cells are inoculated in a 96-well plate at a density of 4×10^5 cells/well. After the cells are adhered overnight, 200 ng/ml LPS is added, the blank control group has no LPS added, and incubated at 5% CO2 and 37° C. for 24 hours. On the second day, different concentrations (50, 100, 200 and 400 μM) of Pineapplin PL6 are added to the wells. The blank control group is treated with LPS-free medium, and the blank control group is treated with PL6-free LPS medium. The cells are then cultured under the condition of 5% CO2 and 37° C. After 24 hours of incubation, 150 μl of medium for each group is collected.
A solution of 1% p-aminobenzene sulfonic acid dissolved in 5% phosphoric acid is prepared, and then mixed with 0.1% N-(1-naphthyl)ethylenediamine dihydrochloride at a ratio of 1:1 to form the Griess reagent. Solutions of sodium nitrite at concentrations of 1.5625 μM to 100 μM are prepared for making a standard curve. 150 μl of the collected medium is mixed with 50 μl of the Griess reagent, and reacted in a dark environment for 30 minutes. The change in absorbance at a wavelength of 555 nm is measured using an ELISA reader.

NFκB = experiment: LPS-induced NFκB expression (p-p65/p65) in RAW264.7 macrophage cells (Western blot); settings: LPS 200 ng/ml, PL6 50-400 μM, 24 hours
Procedure: In this example, effect of Pineapplin PL6 on the LPS-induced NFκB expression is further tested in the RAW264.7 macrophage cell line. The value of p-p65/p65 is the relative expression level of NFκB protein. The higher the expression level of NFκB, the more inflammation response occurred (as an inflammation index). RAW264.7 macrophage cells were pretreated with LPS (200 ng/ml) for 24 hours, then incubated with various concentrations (50, 100, 200 and 400 μM) of PL6 for 24 hours at a condition of 5% CO2 and 37° C. The (−) control group is treated with LPS-free medium, and the (+) control group is treated with PL6-free LPS medium. The cell culture supernatant of each group is collected, then the protein concentration is calculated, and 30 μg of total protein is taken from each group for protein gel electrophoresis. […] After washing with PBST, the developing agent (Western Chemiluminescent HRP Substrate) is added, and the luminescence fluorescence digital analysis system (ImageQuant LAS 400 mini, GE Healthcare Life Sciences) is used for luminescence color development.
The data shown in FIG. 8 is the relative expression of NFκB protein p-p65/p65, which is calculated by a software, based on the values obtained from the luminescence color film using scanning optical density method and standardized to β-actin protein.

1,2,3-tricarboxylic acid-propyl-3-hydroxyphenol acrylate [Pineapplin PL6]
iNOS protein expression (iNOS/β-actin) (iNOS): inhibiting iNOS protein expression
cytotoxicity to RAW264.7 cells (RAW264.7 cells): no obvious cytotoxicity
production of nitric oxide induced by LPS [1]: significantly reduces
NFκB protein expression (p-p65/p65) (NFκB): inhibiting NFκB protein expression
